Laboratory results: the NIST ThermoML archive (doi:10.1007/s10765-010-0737-5)

Experiment: xn = mol fraction of the nth substance listed
Conditions: Liquid; for viscosity: 101 kPa, Capillary tube (Ostwald / Ubbelohde) method; for mass density: 101.3 kPa

CC(C)(C)Cl [2-chloro-2-methylpropane] + CC(C)OC(C)C
Conditions | mass density [kg/m3] | viscosity [mPa·s]
283.15 K, x1 = 0.049 | 738.51 | 0.3693
283.15 K, x1 = 0.0996 | 743.477 | 0.3746
283.15 K, x1 = 0.1991 | 753.625 | 0.386
283.15 K, x1 = 0.3212 | 766.738 | 0.4025
283.15 K, x1 = 0.4189 | 777.752 | 0.4183
283.15 K, x1 = 0.5148 | 789.053 | 0.4365
283.15 K, x1 = 0.6213 | 802.211 | 0.4606
283.15 K, x1 = 0.7152 | 814.386 | 0.4862
283.15 K, x1 = 0.8138 | 827.842 | 0.5182
283.15 K, x1 = 0.9079 | 841.347 | 0.555
283.15 K, x1 = 0.9552 | 848.401 | 0.5761
283.15 K, x1 = 1 | 855.249 | 0.598
288.15 K, x1 = 0.049 | 733.338 | 0.3531
288.15 K, x1 = 0.0996 | 738.271 | 0.358
288.15 K, x1 = 0.1991 | 748.35 | 0.3683
288.15 K, x1 = 0.3212 | 761.373 | 0.3827
288.15 K, x1 = 0.4189 | 772.308 | 0.3963
288.15 K, x1 = 0.5148 | 783.527 | 0.412
288.15 K, x1 = 0.6213 | 796.59 | 0.4328
288.15 K, x1 = 0.7152 | 808.683 | 0.4549
288.15 K, x1 = 0.8138 | 822.038 | 0.4829
288.15 K, x1 = 0.9079 | 835.446 | 0.5154
288.15 K, x1 = 0.9552 | 842.442 | 0.5342
288.15 K, x1 = 1 | 849.243 | 0.5538
293.15 K, x1 = 0.049 | 728.121 | 0.3381
293.15 K, x1 = 0.0996 | 733.024 | 0.3425
293.15 K, x1 = 0.1991 | 743.024 | 0.3515
293.15 K, x1 = 0.3212 | 755.959 | 0.3641
293.15 K, x1 = 0.4189 | 766.815 | 0.376
293.15 K, x1 = 0.5148 | 777.959 | 0.3894
293.15 K, x1 = 0.6213 | 790.929 | 0.4075
293.15 K, x1 = 0.7152 | 802.935 | 0.4268
293.15 K, x1 = 0.8138 | 816.186 | 0.4512
293.15 K, x1 = 0.9079 | 829.489 | 0.4796
293.15 K, x1 = 0.9552 | 836.437 | 0.4962
293.15 K, x1 = 1 | 843.191 | 0.5135
298.15 K, x1 = 0.049 | 722.867 | 0.3217
298.15 K, x1 = 0.0996 | 727.738 | 0.3258
298.15 K, x1 = 0.1991 | 737.666 | 0.3342
298.15 K, x1 = 0.3212 | 750.506 | 0.3458
298.15 K, x1 = 0.4189 | 761.288 | 0.3564
298.15 K, x1 = 0.5148 | 772.351 | 0.3686
298.15 K, x1 = 0.6213 | 785.231 | 0.3845
298.15 K, x1 = 0.7152 | 797.145 | 0.4014
298.15 K, x1 = 0.8138 | 810.301 | 0.4229
298.15 K, x1 = 0.9079 | 823.502 | 0.4476
298.15 K, x1 = 0.9552 | 830.397 | 0.4619
298.15 K, x1 = 1 | 837.096 | 0.4768
303.15 K, x1 = 0.049 | 717.578 | 0.304
303.15 K, x1 = 0.0996 | 722.412 | 0.308
303.15 K, x1 = 0.1991 | 732.264 | 0.3164
303.15 K, x1 = 0.3212 | 745.013 | 0.3277
303.15 K, x1 = 0.4189 | 755.716 | 0.3379
303.15 K, x1 = 0.5148 | 766.702 | 0.3492
303.15 K, x1 = 0.6213 | 779.484 | 0.3639
303.15 K, x1 = 0.7152 | 791.308 | 0.3791
303.15 K, x1 = 0.8138 | 804.365 | 0.3979
303.15 K, x1 = 0.9079 | 817.467 | 0.4191
303.15 K, x1 = 0.9552 | 824.312 | 0.4313
303.15 K, x1 = 1 | 830.958 | 0.4438
308.15 K, x1 = 0.049 | 712.24 | 0.2892
308.15 K, x1 = 0.0996 | 717.039 | 0.2928
308.15 K, x1 = 0.1991 | 726.821 | 0.3006
308.15 K, x1 = 0.3212 | 739.479 | 0.3115
308.15 K, x1 = 0.4189 | 750.102 | 0.3216
308.15 K, x1 = 0.5148 | 761.005 | 0.3327
308.15 K, x1 = 0.6213 | 773.688 | 0.3468
308.15 K, x1 = 0.7152 | 785.436 | 0.3613
308.15 K, x1 = 0.8138 | 798.392 | 0.3787
308.15 K, x1 = 0.9079 | 811.393 | 0.398
308.15 K, x1 = 0.9552 | 818.179 | 0.4087
308.15 K, x1 = 1 | 824.772 | 0.4196
313.15 K, x1 = 0.049 | 706.856 | 0.2751
313.15 K, x1 = 0.0996 | 711.61 | 0.2783
313.15 K, x1 = 0.1991 | 721.328 | 0.2856
313.15 K, x1 = 0.3212 | 733.893 | 0.2963
313.15 K, x1 = 0.4189 | 744.44 | 0.3061
313.15 K, x1 = 0.5148 | 755.257 | 0.3171
313.15 K, x1 = 0.6213 | 767.848 | 0.3306
313.15 K, x1 = 0.7152 | 779.502 | 0.3436
313.15 K, x1 = 0.8138 | 792.362 | 0.3586
313.15 K, x1 = 0.9079 | 805.256 | 0.3741
313.15 K, x1 = 0.9552 | 811.996 | 0.3824
313.15 K, x1 = 1 | 818.536 | 0.3904

CCCCCl [1-chlorobutane] + CC(C)OC(C)C
Conditions | mass density [kg/m3] | viscosity [mPa·s]
283.15 K, x1 = 0.0466 | 740.095 | 0.3698
283.15 K, x1 = 0.0991 | 747.139 | 0.3755
283.15 K, x1 = 0.1918 | 759.833 | 0.3863
283.15 K, x1 = 0.3234 | 778.726 | 0.4028
283.15 K, x1 = 0.4199 | 793.339 | 0.4153
283.15 K, x1 = 0.516 | 808.586 | 0.4283
283.15 K, x1 = 0.623 | 826.434 | 0.4433
283.15 K, x1 = 0.7154 | 842.63 | 0.4568
283.15 K, x1 = 0.8157 | 861.003 | 0.4715
283.15 K, x1 = 0.9098 | 879.099 | 0.4857
283.15 K, x1 = 0.9559 | 888.28 | 0.4927
283.15 K, x1 = 1 | 897.339 | 0.4993
288.15 K, x1 = 0.0466 | 734.99 | 0.3535
288.15 K, x1 = 0.0991 | 741.966 | 0.359
288.15 K, x1 = 0.1918 | 754.629 | 0.3689
288.15 K, x1 = 0.3234 | 773.471 | 0.3838
288.15 K, x1 = 0.4199 | 788.055 | 0.3951
288.15 K, x1 = 0.516 | 803.274 | 0.4068
288.15 K, x1 = 0.623 | 821.073 | 0.4202
288.15 K, x1 = 0.7154 | 837.246 | 0.4321
288.15 K, x1 = 0.8157 | 855.588 | 0.4453
288.15 K, x1 = 0.9098 | 873.635 | 0.4579
288.15 K, x1 = 0.9559 | 882.81 | 0.4641
288.15 K, x1 = 1 | 891.855 | 0.4701
293.15 K, x1 = 0.0466 | 729.792 | 0.3385
293.15 K, x1 = 0.0991 | 736.75 | 0.3435
293.15 K, x1 = 0.1918 | 749.383 | 0.3528
293.15 K, x1 = 0.3234 | 768.192 | 0.3662
293.15 K, x1 = 0.4199 | 782.731 | 0.3763
293.15 K, x1 = 0.516 | 797.924 | 0.3868
293.15 K, x1 = 0.623 | 815.68 | 0.3988
293.15 K, x1 = 0.7154 | 831.821 | 0.4094
293.15 K, x1 = 0.8157 | 850.133 | 0.4212
293.15 K, x1 = 0.9098 | 868.142 | 0.4323
293.15 K, x1 = 0.9559 | 877.303 | 0.4379
293.15 K, x1 = 1 | 886.335 | 0.4433
298.15 K, x1 = 0.0466 | 724.56 | 0.3222
298.15 K, x1 = 0.0991 | 731.492 | 0.3273
298.15 K, x1 = 0.1918 | 744.091 | 0.336
298.15 K, x1 = 0.3234 | 762.854 | 0.3487
298.15 K, x1 = 0.4199 | 777.351 | 0.3583
298.15 K, x1 = 0.516 | 792.506 | 0.3682
298.15 K, x1 = 0.623 | 810.177 | 0.3793
298.15 K, x1 = 0.7154 | 826.321 | 0.3893
298.15 K, x1 = 0.8157 | 844.587 | 0.4003
298.15 K, x1 = 0.9098 | 862.556 | 0.411
298.15 K, x1 = 0.9559 | 871.691 | 0.4162
298.15 K, x1 = 1 | 880.705 | 0.4214
303.15 K, x1 = 0.0466 | 719.283 | 0.3048
303.15 K, x1 = 0.0991 | 726.204 | 0.3098
303.15 K, x1 = 0.1918 | 738.777 | 0.3188
303.15 K, x1 = 0.3234 | 757.526 | 0.3318
303.15 K, x1 = 0.4199 | 771.984 | 0.3415
303.15 K, x1 = 0.516 | 787.119 | 0.3514
303.15 K, x1 = 0.623 | 804.761 | 0.3628
303.15 K, x1 = 0.7154 | 820.882 | 0.3726
303.15 K, x1 = 0.8157 | 839.124 | 0.3837
303.15 K, x1 = 0.9098 | 857.076 | 0.3944
303.15 K, x1 = 0.9559 | 866.204 | 0.3998
303.15 K, x1 = 1 | 875.204 | 0.405
308.15 K, x1 = 0.0466 | 713.967 | 0.2903
308.15 K, x1 = 0.0991 | 720.87 | 0.2953
308.15 K, x1 = 0.1918 | 733.414 | 0.3043
308.15 K, x1 = 0.3234 | 752.126 | 0.317
308.15 K, x1 = 0.4199 | 766.553 | 0.3266
308.15 K, x1 = 0.516 | 781.656 | 0.3362
308.15 K, x1 = 0.623 | 799.266 | 0.3472
308.15 K, x1 = 0.7154 | 815.358 | 0.3569
308.15 K, x1 = 0.8157 | 833.567 | 0.3677
308.15 K, x1 = 0.9098 | 851.486 | 0.3781
308.15 K, x1 = 0.9559 | 860.595 | 0.3833
308.15 K, x1 = 1 | 869.585 | 0.3885
313.15 K, x1 = 0.0466 | 708.604 | 0.2765
313.15 K, x1 = 0.0991 | 715.486 | 0.2811
313.15 K, x1 = 0.1918 | 728.002 | 0.2891
313.15 K, x1 = 0.3234 | 746.649 | 0.3005
313.15 K, x1 = 0.4199 | 761.063 | 0.309
313.15 K, x1 = 0.516 | 776.136 | 0.3175
313.15 K, x1 = 0.623 | 793.704 | 0.3274
313.15 K, x1 = 0.7154 | 809.769 | 0.3359
313.15 K, x1 = 0.8157 | 827.935 | 0.3456
313.15 K, x1 = 0.9098 | 845.816 | 0.3548
313.15 K, x1 = 0.9559 | 854.913 | 0.3594
313.15 K, x1 = 1 | 863.882 | 0.3642
